Data from the NIST ThermoML archive (doi:10.1021/je300252d).

Assay: mn = molality of the nth substance listed, in mol/kg
Conditions: 100 kPa, Liquid, Direct current cell with electrodes

CCCC[N+](CCCC)(CCCC)CCCC.[Br-] [tetrabutylammonium bromide] + CN(C)C=O
Conditions | molar conductivity [S·m2/mol]
283.15 K, m1 = 9.197e-05 | 0.006236
283.15 K, m1 = 0.0002922 | 0.006141
283.15 K, m1 = 0.0004908 | 0.006078
283.15 K, m1 = 0.0006894 | 0.0060258
283.15 K, m1 = 0.001222 | 0.0059158
283.15 K, m1 = 0.00199 | 0.0057906
283.15 K, m1 = 0.002938 | 0.0056698
283.15 K, m1 = 0.003964 | 0.0055611
283.15 K, m1 = 0.005897 | 0.005399
283.15 K, m1 = 0.007916 | 0.0052571
283.15 K, m1 = 0.009885 | 0.0051385
283.15 K, m1 = 0.01187 | 0.0050378
288.15 K, m1 = 0.0002384 | 0.006641
288.15 K, m1 = 0.0003637 | 0.006588
288.15 K, m1 = 0.0005543 | 0.0065255
288.15 K, m1 = 0.0007699 | 0.0064657
288.15 K, m1 = 0.001232 | 0.0063637
288.15 K, m1 = 0.00201 | 0.0062266
288.15 K, m1 = 0.002974 | 0.0060937
288.15 K, m1 = 0.003946 | 0.005981
288.15 K, m1 = 0.005906 | 0.0058005
288.15 K, m1 = 0.007894 | 0.0056496
288.15 K, m1 = 0.009876 | 0.0055214
288.15 K, m1 = 0.01183 | 0.0054109
293.15 K, m1 = 0.000124 | 0.007196
293.15 K, m1 = 0.000358 | 0.007067
293.15 K, m1 = 0.0005617 | 0.006993
293.15 K, m1 = 0.0007496 | 0.0069356
293.15 K, m1 = 0.001203 | 0.006825
293.15 K, m1 = 0.001974 | 0.0066764
293.15 K, m1 = 0.002962 | 0.006528
293.15 K, m1 = 0.003941 | 0.0064046
293.15 K, m1 = 0.005913 | 0.0062071
293.15 K, m1 = 0.007899 | 0.0060446
293.15 K, m1 = 0.009903 | 0.0059059
293.15 K, m1 = 0.01185 | 0.0057855
298.15 K, m1 = 8.12e-05 | 0.00773
298.15 K, m1 = 0.0003247 | 0.007565
298.15 K, m1 = 0.0005335 | 0.007478
298.15 K, m1 = 0.000754 | 0.0074043
298.15 K, m1 = 0.001188 | 0.0072894
298.15 K, m1 = 0.001985 | 0.0071236
298.15 K, m1 = 0.002972 | 0.0069641
298.15 K, m1 = 0.003989 | 0.0068266
298.15 K, m1 = 0.005892 | 0.0066212
298.15 K, m1 = 0.007909 | 0.0064436
298.15 K, m1 = 0.009849 | 0.0062996
298.15 K, m1 = 0.0119 | 0.0061631
303.15 K, m1 = 0.0001279 | 0.008182
303.15 K, m1 = 0.0003737 | 0.008028
303.15 K, m1 = 0.0004937 | 0.007975
303.15 K, m1 = 0.0007203 | 0.0078909
303.15 K, m1 = 0.00121 | 0.0077502
303.15 K, m1 = 0.002013 | 0.0075724
303.15 K, m1 = 0.002974 | 0.0074063
303.15 K, m1 = 0.003957 | 0.0072634
303.15 K, m1 = 0.005917 | 0.0070358
303.15 K, m1 = 0.00787 | 0.0068512
303.15 K, m1 = 0.009823 | 0.0066956
303.15 K, m1 = 0.01184 | 0.0065521
308.15 K, m1 = 0.0001375 | 0.008672
308.15 K, m1 = 0.0003374 | 0.008537
308.15 K, m1 = 0.0005902 | 0.008422
308.15 K, m1 = 0.0007253 | 0.0083707
308.15 K, m1 = 0.001221 | 0.0082189
308.15 K, m1 = 0.002004 | 0.0080331
308.15 K, m1 = 0.002993 | 0.0078504
308.15 K, m1 = 0.003956 | 0.0077012
308.15 K, m1 = 0.005922 | 0.0074573
308.15 K, m1 = 0.007903 | 0.0072572
308.15 K, m1 = 0.009896 | 0.007088
308.15 K, m1 = 0.01189 | 0.0069381
313.15 K, m1 = 6.835e-05 | 0.009246
313.15 K, m1 = 0.0003232 | 0.009042
313.15 K, m1 = 0.0005979 | 0.008909
313.15 K, m1 = 0.0007057 | 0.0088651
313.15 K, m1 = 0.001228 | 0.0086936
313.15 K, m1 = 0.002045 | 0.0084879
313.15 K, m1 = 0.002992 | 0.0083023
313.15 K, m1 = 0.003971 | 0.0081415
313.15 K, m1 = 0.00585 | 0.0078927
313.15 K, m1 = 0.00787 | 0.0076738
313.15 K, m1 = 0.009873 | 0.0074917
313.15 K, m1 = 0.01189 | 0.007332
318.15 K, m1 = 9.782e-05 | 0.009714
318.15 K, m1 = 0.0003254 | 0.009541
318.15 K, m1 = 0.0005324 | 0.009434
318.15 K, m1 = 0.0007651 | 0.0093342
318.15 K, m1 = 0.001206 | 0.0091821
318.15 K, m1 = 0.001977 | 0.0089725
318.15 K, m1 = 0.002989 | 0.0087596
318.15 K, m1 = 0.003967 | 0.0085894
318.15 K, m1 = 0.005938 | 0.0083142
318.15 K, m1 = 0.007894 | 0.0080896
318.15 K, m1 = 0.009905 | 0.0078947
318.15 K, m1 = 0.01189 | 0.0077299

[Na+].c1ccc([B-](c2ccccc2)(c2ccccc2)c2ccccc2)cc1 [sodium tetraphenylboron] + CN(C)C=O
Conditions | molar conductivity [S·m2/mol]
283.15 K, m1 = 0.0001121 | 0.004311
283.15 K, m1 = 0.0003006 | 0.004246
283.15 K, m1 = 0.0005305 | 0.004194
283.15 K, m1 = 0.0007538 | 0.0041545
283.15 K, m1 = 0.001184 | 0.0040963
283.15 K, m1 = 0.001959 | 0.0040172
283.15 K, m1 = 0.002964 | 0.0039424
283.15 K, m1 = 0.004014 | 0.0038787
283.15 K, m1 = 0.005905 | 0.0037902
283.15 K, m1 = 0.007908 | 0.0037146
283.15 K, m1 = 0.009953 | 0.0036529
283.15 K, m1 = 0.01189 | 0.003601
288.15 K, m1 = 8.405e-05 | 0.004653
288.15 K, m1 = 0.0003375 | 0.00456
288.15 K, m1 = 0.0005532 | 0.0045097
288.15 K, m1 = 0.0008262 | 0.0044598
288.15 K, m1 = 0.001174 | 0.0044103
288.15 K, m1 = 0.001935 | 0.0043259
288.15 K, m1 = 0.003089 | 0.004235
288.15 K, m1 = 0.003947 | 0.00418
288.15 K, m1 = 0.005926 | 0.0040813
288.15 K, m1 = 0.007888 | 0.004001
288.15 K, m1 = 0.009893 | 0.0039356
288.15 K, m1 = 0.01186 | 0.0038782
293.15 K, m1 = 8.854e-05 | 0.00499
293.15 K, m1 = 0.0003068 | 0.004902
293.15 K, m1 = 0.0005164 | 0.0048481
293.15 K, m1 = 0.0007512 | 0.0047996
293.15 K, m1 = 0.001224 | 0.004726
293.15 K, m1 = 0.001989 | 0.004637
293.15 K, m1 = 0.003077 | 0.0045457
293.15 K, m1 = 0.004001 | 0.004483
293.15 K, m1 = 0.005908 | 0.0043822
293.15 K, m1 = 0.007927 | 0.004295
293.15 K, m1 = 0.009859 | 0.004226
293.15 K, m1 = 0.0119 | 0.004162
298.15 K, m1 = 0.000116 | 0.005325
298.15 K, m1 = 0.0003157 | 0.005244
298.15 K, m1 = 0.0005504 | 0.0051809
298.15 K, m1 = 0.0007618 | 0.0051351
298.15 K, m1 = 0.001217 | 0.0050592
298.15 K, m1 = 0.002007 | 0.0049609
298.15 K, m1 = 0.002964 | 0.0048739
298.15 K, m1 = 0.003939 | 0.004802
298.15 K, m1 = 0.005917 | 0.0046899
298.15 K, m1 = 0.00789 | 0.004599
298.15 K, m1 = 0.009808 | 0.0045256
298.15 K, m1 = 0.01189 | 0.0044558
303.15 K, m1 = 0.0001023 | 0.005694
303.15 K, m1 = 0.0003262 | 0.005596
303.15 K, m1 = 0.0005565 | 0.00553
303.15 K, m1 = 0.0007645 | 0.0054821
303.15 K, m1 = 0.001229 | 0.0053997
303.15 K, m1 = 0.002017 | 0.0052952
303.15 K, m1 = 0.003018 | 0.0051984
303.15 K, m1 = 0.004001 | 0.0051217
303.15 K, m1 = 0.005892 | 0.0050075
303.15 K, m1 = 0.007841 | 0.0049118
303.15 K, m1 = 0.009874 | 0.0048292
303.15 K, m1 = 0.01188 | 0.0047579
308.15 K, m1 = 0.000135 | 0.006046
308.15 K, m1 = 0.0003264 | 0.005961
308.15 K, m1 = 0.0005229 | 0.0058999
308.15 K, m1 = 0.0007539 | 0.0058422
308.15 K, m1 = 0.00122 | 0.0057534
308.15 K, m1 = 0.002002 | 0.0056421
308.15 K, m1 = 0.002969 | 0.005541
308.15 K, m1 = 0.00395 | 0.0054581
308.15 K, m1 = 0.005926 | 0.00533
308.15 K, m1 = 0.007923 | 0.0052265
308.15 K, m1 = 0.009885 | 0.005143
308.15 K, m1 = 0.01187 | 0.0050687
313.15 K, m1 = 8.854e-05 | 0.00646
313.15 K, m1 = 0.0002531 | 0.006367
313.15 K, m1 = 0.0004344 | 0.006299
313.15 K, m1 = 0.00071 | 0.0062208
313.15 K, m1 = 0.001219 | 0.006116
313.15 K, m1 = 0.002012 | 0.0059959
313.15 K, m1 = 0.003006 | 0.0058852
313.15 K, m1 = 0.00399 | 0.0057965
313.15 K, m1 = 0.005907 | 0.0056636
313.15 K, m1 = 0.007913 | 0.0055535
313.15 K, m1 = 0.00989 | 0.0054653
313.15 K, m1 = 0.01185 | 0.0053887
318.15 K, m1 = 0.0001115 | 0.006838
318.15 K, m1 = 0.0002618 | 0.006751
318.15 K, m1 = 0.000487 | 0.006665
318.15 K, m1 = 0.0007457 | 0.0065904
318.15 K, m1 = 0.001234 | 0.0064856
318.15 K, m1 = 0.002038 | 0.0063572
318.15 K, m1 = 0.003 | 0.0062427
318.15 K, m1 = 0.003985 | 0.0061473
318.15 K, m1 = 0.005931 | 0.0060029
318.15 K, m1 = 0.007878 | 0.0058897
318.15 K, m1 = 0.009914 | 0.0057949
